Experimental data published in patent publication US20220323427A1, “SOMATOSTATIN RECEPTOR TYPE 5 AGONIST FOR THE TREATMENT OF HYPERINSULINISM” (Crinetics Pharmaceuticals, Inc., priority 2021, published 2022).

Key:
human pancreatic islets = test: Glucagon secretion in perifused human islets; type: cell-based; conditions: islets from a healthy donor; G3+Arg
Method: For glucagon secretion, glucose (Boston BioProducts #BM-675) solutions, G3, G16.7 and G3 plus 20 mM arginine (Sigma #A8094; G3+Arg) were prepared in PB [24 mM NaHCO3 (Fisher Scientific #S233-500), 120 mM NaCl (Spectrum Chemical #S0155), 4.8 mM KCl (Fisher Scientific #P217-500), 2.5 mM CaCl2 (Fisher Scientific #C614-500), 1.2 mM MgCl2 (Sigma #M8266), 10 mM HEPES (Gibco #15630-080) and 0.1% BSA (EMD Millipore #12-675-100GM)]. Various concentrations of Compound 1 and diazoxide (Sigma #D9035) were prepared in G16.7 or in G3+Arg. On the day of the assay, ten perifusion chambers (Biorep #Peri-chamber) were loaded with a bead suspension (Biorep #Peri-beads-20) followed by 300 IEQ and another layer of bead suspension. Chambers were filled with PB, placed in the perifusion equipment and equilibrated with G3 for 74 min (flow rate=230 μL/min) followed by the perifusion steps for glucagon secretion shown in Table 3. […] Glucagon concentration was quantified using the commercially-available Mercodia Glucagon ELISA (Mercodia #10-1271-01) kit. undiluted perfusate samples were added to the supplied pre-coated assay plates. […] The optical density of each well was determined at 450 nm in a Tecan M1000Pro (Tecan, Switzerland) multiplate reader. Glucagon concentrations were calculated by regression to the standard curve using GraphPad Prism (GraphPad, San Diego, Calif.).

[1] = cited from earlier work
[2] = system: glyburide-induced hyperinsulinemic hypoglycemia; test: Glyburide-induced hyperinsulinemic hypoglycemia model in rats; type: in vivo, Sprague Dawley rats; conditions: 30 mg/kg oral, adult male rats; mean baseline 168 mg/dL
Method: Sulfonylurea drugs, such as glyburide, inhibit KATP channels and can be used in rat preclinical models to mimic the disease state of congenital HI patients with KATP channel mutations.
This model of glyburide-induced hyperinsulinemic hypoglycemia was used to assess the pharmacodynamic effects of Compound 1 after a single administration in male and female adult rats and male neonatal rats.
Glyburide was administered to raise insulin levels and induce hypoglycemia in adult male Sprague Dawley rats.
Two hours following glyburide administration, Compound 1 was given by oral gavage and blood glucose was monitored over 5 hours.

[3] = fasting conditions; cited from earlier work

| SMILES | Inhibition of arginine-stimulated glucagon secretion (human pancreatic islets) | Patients treated and considered responsive who continue to have hypoglycemia ([1]; 2020 Congenital HI International Global Registry report) [%] | Patients who experienced pulmonary hypertension ([1]; one study) [%] | Side effect: fluid retention ([1]; patients) | Side effect: gastrointestinal side effects including feeding aversion ([1]; patients) | Side effect: severe hypertrichosis ([1]; patients) | Blood glucose level after glyburide [2] [mg/dL] | half-life [3] |
| --- | --- | --- | --- | --- | --- | --- | --- | --- |
| CC1=NS(=O)(=O)c2cc(Cl)ccc2N1 [diazoxide] | up to 57% | 30 | 4.8 | approximately 30% | approximately 12% | approximately 52% | – | – |
| COc1ccc(Cl)cc1C(=O)NCCc1ccc(S(=O)(=O)NC(=O)NC2CCCCC2)cc1 [glyburide, reference compound] | – | – | – | – | – | – | 70 | approximately 10 hours |
